In patent US7674803B2, “Thiazolypiperidine derivatives as MTP inhibitors” (Merck Patent GmbH, priority 2003, dated 2010):
pIC50: −log10 of the molar value.

Tests used:
[1] = molecular target: T1, microsomal triglyceride transfer protein (MTP) (Mesocricetus auratus, UniProt P55158); assay: Inhibition of MTP activity (transfer of labelled triglyceride from donor to acceptor particle, SPA); assay type: biochemical; details: MTP from golden hamster liver microsomes; [3H]-triolein transfer to LDL-biot; incubation 18-24 hours at 37° C.; read-out: IC50, concentration that allows a 50% inhibition of MTP
T1 construct: The supernatant comprising the soluble MTP is dialysed; from tissue; host or cells: golden hamster liver microsomes, deoxycholate-solubilised
T1 sequence (P55158 19-895): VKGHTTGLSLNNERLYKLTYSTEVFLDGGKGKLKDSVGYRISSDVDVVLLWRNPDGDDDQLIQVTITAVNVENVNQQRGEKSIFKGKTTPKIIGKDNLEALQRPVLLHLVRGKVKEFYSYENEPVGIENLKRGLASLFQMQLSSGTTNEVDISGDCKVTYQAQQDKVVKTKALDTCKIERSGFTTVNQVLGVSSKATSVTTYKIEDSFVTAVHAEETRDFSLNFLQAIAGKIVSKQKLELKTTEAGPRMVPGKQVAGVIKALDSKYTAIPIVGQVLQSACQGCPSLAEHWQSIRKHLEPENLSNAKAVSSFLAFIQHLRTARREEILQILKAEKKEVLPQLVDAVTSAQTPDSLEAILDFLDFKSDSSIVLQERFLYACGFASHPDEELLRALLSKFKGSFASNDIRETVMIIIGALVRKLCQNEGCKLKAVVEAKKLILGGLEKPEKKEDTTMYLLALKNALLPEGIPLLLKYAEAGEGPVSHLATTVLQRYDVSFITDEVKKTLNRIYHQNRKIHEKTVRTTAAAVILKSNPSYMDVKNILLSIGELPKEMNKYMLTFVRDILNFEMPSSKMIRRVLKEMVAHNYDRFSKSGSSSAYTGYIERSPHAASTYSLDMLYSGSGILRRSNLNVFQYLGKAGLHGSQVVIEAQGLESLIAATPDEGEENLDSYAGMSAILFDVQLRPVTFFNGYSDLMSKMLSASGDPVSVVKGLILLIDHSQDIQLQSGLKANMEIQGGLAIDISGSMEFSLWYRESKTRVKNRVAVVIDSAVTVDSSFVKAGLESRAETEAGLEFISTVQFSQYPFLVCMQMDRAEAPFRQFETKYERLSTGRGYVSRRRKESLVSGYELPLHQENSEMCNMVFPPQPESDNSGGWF
Description: Analysis of the Inhibition of MTP Activity
The inhibition of the activity of microsomal triglyceride transfer protein (MTP) was tested by using the following operating protocol.
The inhibition of MTP activity with a compound can be quantified by observing the inhibition of the transfer of a labelled triglyceride, from a donor particle to an acceptor particle, in the presence of MTP. The procedure for the preparation of MTP is based on the method by Wetterau and Zilversmit (Biochem. Biophys. Acta (1986) 875, 610). A few grams of golden hamster liver are taken and then rinsed several times in a 250 mM sucrose solution at 0° C. All the following steps proceed at +4° C. A homogenate at a concentration of 50% in 250 mM sucrose is prepared using a Teflon mill and then centrifuged for 10 minutes at 10 000× g at +4° C. The supernatant is then centrifuged at 105 000× g for 75 minutes at +4° C. The supernatant is discarded and the microsomal pellet is taken up in 3 ml (per g of starting liver) of Tris/HCl 150 mM pH 8.0. 1-ml aliquot fractions are stored at −80° C. until the time of use.
After thawing a fraction of microsomes (1 ml), 12 ml of refrigerated Tris/HCl 50 mM, KCl 50 mM, MgCl2 5 mM pH 7.4 buffers and 1.2 ml of deoxycholate (0.54% in water) are added. After incubation for 30 minutes at +4° C. with gentle agitation, the suspension is centrifuged at 105 000× g for 75 minutes. The supernatant comprising the soluble MTP is dialysed against Tris/HCl 150 mM, NaCl 40 mM, EDTA 1 mM, 0.02% sodium azide pH 7.4 buffer (5 times one litre over 2-3 days). The MTP is stored at +4° C., is stable for at least 30 days and is used in unmodified form in the test.
The donor particles (liposomes) are prepared from 208 μL of L-phosphatidylcholine at a concentration of 10 mg/ml in chloroform, and 480 μL of. [3H]-triolein at a concentration of 0.5 mCi/ml in toluene. After stirring, the solution is evaporated under nitrogen, taken up in 6 ml of Tris/HCl 50 mM, KCl 50 mM, MgCl2 5 mM pH 7.4 buffer and incubated in an ultrasound bath for 30 minutes at room temperature. The liposomes are stored at +4° C. and sonicated again for 10 minutes before each use.
The acceptor particles are biotinylated low density lipoproteins (LDL-biot). These particles are supplied by the company Amersham.
The reaction mixture is prepared in untreated 1/2 well white plates (Corning Costar) by addition, in the following order, of: 5 μL of HEPES 50 mM, NaCl 150 mM, BSA 0.1% (w/v), 0.05% sodium azide (w/v), pH 7.4 buffer; 5 μL of liposomes; 5 μL of LDL-biot; 5 μL of test products in DMSO; 5 μL of MTP. After incubation for 18-24 hours at 37° C., the reaction is stopped by adding 100 μL of Amersham SPA (Scintillation Proximity Assay) beads coupled to streptavidin, and the radioactivity is counted using a Top Count (Packard) machine at least one hour later. The inhibition of the transfer of the triglycerides with a compound is reflected by a reduction in the transferred radioactivity.
The results are expressed in terms of the IC50, i.e. the concentration that allows a 50% inhibition of MTP.

[2] = tested on: apo B secretion in HepG2 cells; assay: Inhibition of apo B secretion in HepG2 cells (sandwich-ELISA); assay type: cell-based; details: 24 hours incubation, culture supernatant tested by ELISA specific for human apo B, read-out: IC50, concentration that produces a 50% inhibition of apo B secretion in the HepG2 cells
Description: Analysis of the Reaction of apo B in the HepG2 Human Cell Line:
The activity of a compound according to the invention can be evaluated by measuring the inhibition of apo B secretion in HepG2 cells.
The HepG2 cells (ECACC—No. 85011430) are used as model in the study of the in vitro hepatic secretion of lipoproteins (Dixon J. and Ginsberg H., J. i Lipid. Res., 1993, 34, 167-179).
The HepG2 cells are cultured in Dulbecco's modified Eagle's medium comprising 10% foetal calf serum (DMEM and FBS-Gibco) in 96-well plates under an atmosphere of 5% carbon dioxide for 24 hours (about 70% confluence).
The test compounds are dissolved at a concentration of 2 or 10 mM in dimethyl sulfoxide (DMSO). Serial dilutions (1:3.16) are made in DMSO and are added (1:200—Robot Multimek Beckman) to the growth medium (200 μL) and then finally incubated for 24 hours in the various wells containing the HepG2cells.
The 24-hour culture supernatant diluted to 1:5 (phosphate-buffered saline: PBS comprising 1% bovine serum albumin) is tested according to a sandwich-ELISA method specific for human apo B.
The results are expressed in terms of IC50, i.e. the concentration that produce a 50% inhibition of apo B secretion in the HepG2 cells.

Row | pIC50 [1] | pIC50 [2] | SMILES
1 | 6.14 | 6.51 | CC(C(=O)c1ccccc1)N(C)C(=O)c1csc(C2CCN(C(=O)c3ccccc3-c3ccc(C(F)(F)F)cc3)CC2)n1 (stereo not shown) [Example 4]
2 | 6.78 |  | CC(C)N(C(=O)c1csc(C2CCN(C(=O)c3ccccc3-c3ccc(C(F)(F)F)cc3)CC2)n1)C(C#N)c1ccccc1 (stereo not shown) [Example 10]
3 | 7.24 | 7.92 | CCN(C(=O)c1csc(C2CCN(C(=O)c3ccccc3-c3ccc(C(F)(F)F)cc3)CC2)n1)C(C)C(=O)c1ccccc1 (stereo not shown) [Example 3]
4 | 6.18 | 6.54 | C[C@H](C(=O)c1ccccc1)N(C)C(=O)c1csc(C2CCN(C(=O)c3ccccc3-c3ccc(C(F)(F)F)cc3)CC2)n1 [Example 5]
5 | 7.24 | 8.15 | CCN(C(=O)c1csc(C2CCN(C(=O)c3ccccc3-c3ccc(C(F)(F)F)cc3)CC2)n1)C(C#N)c1ccccc1 (stereo not shown) [Example 9]
6 | 6.41 | 6.54 | CCN(C(=O)c1csc(C2CCN(C(=O)c3ccccc3-c3ccc(C(F)(F)F)cc3)CC2)n1)C(C)C(=O)c1cccnc1 (stereo not shown) [Example 6]

Row | SMILES | pIC50 [1] | pIC50 [2]
7 | CCN(C(=O)c1csc(C2CCN(C(=O)c3cccc(C)c3-c3ccc(OC(F)(F)F)cc3)CC2)n1)C(C)C(=O)c1ccccc1 (stereo not shown) [Example 1, 2-[1-(6-Methyl-4’-trifluoromethoxybiphenyl-2-carbonyl)piperid-4-yl]thiazol-4-carbonyl[N-ethyl-N-(1-methyl-2-oxo-2-phenylethyl)]amide] | 7.29 | 7.70
